In series [1] the target is Phosphatidylinositol 4,5-bisphosphate 3-kinase catalytic subunit gamma isoform (Homo sapiens, UniProt P48736). Nature of the series: Inhibition of human PI3Kgamma using PtdIns/PtdSer as substrate after 2 hrs by scintillation counting analysis in presence of gamma[33P]ATP.
The target of series [2] is Phosphatidylinositol 4,5-bisphosphate 3-kinase catalytic subunit gamma isoform (Mus musculus, UniProt Q9JHG7). The series is described as follows: Inhibition of PI3Kgamma in mouse RAW264.7 cells assessed as C5a-mediated PKB/Akt phosphorylation preincubated for 30 mins followed by C5a stimulation measured after 5 mins. Format: cell-based.
Chain of Phosphatidylinositol 4,5-bisphosphate 3-kinase catalytic subunit gamma isoform (Mus musculus, UniProt Q9JHG7) (Q9JHG7 whole entry, canonical isoform): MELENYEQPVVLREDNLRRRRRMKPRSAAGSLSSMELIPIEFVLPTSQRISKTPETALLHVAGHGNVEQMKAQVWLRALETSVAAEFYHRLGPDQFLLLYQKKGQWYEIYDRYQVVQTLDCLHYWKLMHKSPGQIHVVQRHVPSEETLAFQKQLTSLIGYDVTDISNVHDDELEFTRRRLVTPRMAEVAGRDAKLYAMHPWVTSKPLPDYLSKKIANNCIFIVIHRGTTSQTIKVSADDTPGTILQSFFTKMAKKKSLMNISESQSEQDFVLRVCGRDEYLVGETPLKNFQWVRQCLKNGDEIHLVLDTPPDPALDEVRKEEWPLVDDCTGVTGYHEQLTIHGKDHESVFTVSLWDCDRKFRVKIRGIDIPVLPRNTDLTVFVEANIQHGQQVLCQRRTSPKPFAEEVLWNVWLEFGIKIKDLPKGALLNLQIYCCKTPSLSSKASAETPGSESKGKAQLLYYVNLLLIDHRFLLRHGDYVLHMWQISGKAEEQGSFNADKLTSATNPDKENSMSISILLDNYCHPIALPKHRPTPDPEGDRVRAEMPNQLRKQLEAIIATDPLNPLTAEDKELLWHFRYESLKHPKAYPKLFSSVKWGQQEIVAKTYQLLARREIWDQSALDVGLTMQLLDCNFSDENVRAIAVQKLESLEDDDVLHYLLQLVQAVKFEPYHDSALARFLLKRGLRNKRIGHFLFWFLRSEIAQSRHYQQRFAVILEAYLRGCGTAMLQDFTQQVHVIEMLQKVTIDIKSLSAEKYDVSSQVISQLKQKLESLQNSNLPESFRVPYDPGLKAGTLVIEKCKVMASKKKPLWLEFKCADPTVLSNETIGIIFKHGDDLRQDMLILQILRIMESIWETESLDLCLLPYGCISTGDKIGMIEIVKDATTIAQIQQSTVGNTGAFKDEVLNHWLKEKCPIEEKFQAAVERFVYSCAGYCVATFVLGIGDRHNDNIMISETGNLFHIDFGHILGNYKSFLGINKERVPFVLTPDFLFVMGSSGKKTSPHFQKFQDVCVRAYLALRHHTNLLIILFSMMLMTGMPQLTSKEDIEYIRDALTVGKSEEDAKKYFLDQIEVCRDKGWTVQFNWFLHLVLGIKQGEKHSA
Series [3] in a line: AUC (0 to 8 hrs) in Sprague-Dawley rat at 30 mg/kg, po. The settings on record: plasma. Format: ADME, organism-based. Also on record: time < 8 hr, dose 30 mg/kg, route oral.
The nature of series [4]: Metabolic stability in rat liver microsomes assessed as compound remaining at 5 uM after 15 mins by LC-MS/MS analysis. Particulars: read-out: Stability; call rule not given here. Format: ADME.
Series [5] can be described thus: Metabolic stability in rat hepatocytes assessed as compound remaining at 5 uM after 1 hr by LC-MS/MS analysis. It is filed as ADME, cell-based, Hepatocyte. The settings on record: read-out: Stability.
A short description of series [6]: Metabolic stability in human hepatocytes assessed as compound remaining at 5 uM after 1 hr by LC-MS/MS analysis. It is filed as ADME, cell-based, Hepatocyte. Particulars: read-out: Stability.
The nature of series [7]: Metabolic stability in human liver microsomes assessed as compound remaining at 5 uM after 15 mins by LC-MS/MS analysis. Format: ADME. The settings on record: read-out: Stability. (Liver microsomes are vesicles of endoplasmic reticulum, rich in cytochrome P450 enzymes.)
Series [8] in a line: Cmax in Sprague-Dawley rat at 30 mg/kg, po. Format: ADME, organism-based. Set-up: dose 30 mg/kg, route oral. Particulars: in vivo.
Another series deals with Cytochrome P450 2C9 (Homo sapiens, UniProt P11712). Nature of the series: Inhibition of CYP2C9 (unknown origin) up to 10 uM. It is filed as ADME.
Chain of Cytochrome P450 2C9 (P11712 whole entry): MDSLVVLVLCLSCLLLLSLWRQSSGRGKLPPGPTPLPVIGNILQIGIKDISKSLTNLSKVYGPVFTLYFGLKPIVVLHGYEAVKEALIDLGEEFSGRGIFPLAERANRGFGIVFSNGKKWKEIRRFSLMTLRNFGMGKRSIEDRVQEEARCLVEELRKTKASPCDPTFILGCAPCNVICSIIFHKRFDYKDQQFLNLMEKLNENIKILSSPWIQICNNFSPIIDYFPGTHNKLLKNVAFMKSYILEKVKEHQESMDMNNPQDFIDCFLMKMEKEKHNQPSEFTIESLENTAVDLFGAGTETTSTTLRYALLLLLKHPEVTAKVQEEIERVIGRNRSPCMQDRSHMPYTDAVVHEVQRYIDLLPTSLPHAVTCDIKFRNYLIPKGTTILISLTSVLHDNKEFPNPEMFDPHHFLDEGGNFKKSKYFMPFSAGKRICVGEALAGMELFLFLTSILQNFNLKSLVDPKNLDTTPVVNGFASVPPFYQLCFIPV
Another series addresses Cytochrome P450 2D6 (Homo sapiens, UniProt P10635). The series is described as follows: Inhibition of CYP2D6 (unknown origin) up to 10 uM. It is filed as ADME.
The target of the next series is Cytochrome P450 2C19 (Homo sapiens, UniProt P33261). Nature of the series: Inhibition of CYP2C19 (unknown origin) up to 10 uM. It is filed as ADME.
Chain of Cytochrome P450 2C19 (P33261 whole entry): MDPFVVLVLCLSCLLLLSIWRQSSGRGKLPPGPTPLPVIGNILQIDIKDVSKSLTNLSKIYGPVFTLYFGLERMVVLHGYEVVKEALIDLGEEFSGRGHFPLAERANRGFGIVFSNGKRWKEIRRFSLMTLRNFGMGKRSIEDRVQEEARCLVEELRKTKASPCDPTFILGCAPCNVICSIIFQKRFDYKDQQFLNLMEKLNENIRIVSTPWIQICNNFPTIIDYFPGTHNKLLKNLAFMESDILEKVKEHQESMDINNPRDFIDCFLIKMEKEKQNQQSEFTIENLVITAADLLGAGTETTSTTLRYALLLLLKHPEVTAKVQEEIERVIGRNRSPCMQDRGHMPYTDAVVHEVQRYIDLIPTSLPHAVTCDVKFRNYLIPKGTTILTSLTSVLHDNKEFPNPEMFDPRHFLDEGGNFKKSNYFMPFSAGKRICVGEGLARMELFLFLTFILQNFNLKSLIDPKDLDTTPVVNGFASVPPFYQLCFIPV
Another series deals with Mus musculus. Nature of the series: Antiarthritic activity in po dosed DBA/1 mouse assessed as suppression of acute collagen-induced arthritis administered as bid for 14 days. Format: functional, organism-based.
The subject of series [9] is Escherichia coli. Nature of the series: Mutagenicity in Escherichia coli WP2uvrA up to 5000 ug/ml by Ames test in absence of rat S9 fraction. It is filed as toxicity, organism-based. A general note: In the Ames test, an excess of revertant colonies over the control signals mutagenicity.
Series [10] has as its system Salmonella typhimurium. The series is described as follows: Mutagenicity in Salmonella typhimurium TA98 up to 5000 ug/ml by Ames test in presence of rat S9 fraction. Particulars: salmonella enterica subsp. enterica serovar typhimurium. Format: toxicity, organism-based.
For series [11], the system named is Escherichia coli. The series is described as follows: Mutagenicity in Escherichia coli WP2uvrA up to 5000 ug/ml by Ames test in presence of rat S9 fraction. It is filed as toxicity, organism-based.
The subject of series [12] is Salmonella typhimurium. The series is described as follows: Mutagenicity in Salmonella typhimurium TA100 up to 2000 ug/ml by Ames fluctuation test. Format: toxicity, organism-based. The settings on record: salmonella enterica subsp. enterica serovar typhimurium.
The subject of series [13] is Salmonella typhimurium. The series is described as follows: Mutagenicity in Salmonella typhimurium TA98 up to 5000 ug/ml by Ames test in absence of rat S9 fraction. Format: toxicity, organism-based. The settings on record: salmonella enterica subsp. enterica serovar typhimurium.
Series [14] relates to Salmonella typhimurium. The series is described as follows: Mutagenicity in Salmonella typhimurium TA98 up to 2000 ug/ml by Ames fluctuation test. The settings on record: salmonella enterica subsp. enterica serovar typhimurium. Format: toxicity, organism-based.
The target of a further series is Cytochrome P450 3A4 (Homo sapiens, UniProt P08684). The series is described as follows: Inhibition of CYP3A4 (unknown origin) up to 10 uM. Format: ADME.
Chain of Cytochrome P450 3A4 (P08684 whole entry): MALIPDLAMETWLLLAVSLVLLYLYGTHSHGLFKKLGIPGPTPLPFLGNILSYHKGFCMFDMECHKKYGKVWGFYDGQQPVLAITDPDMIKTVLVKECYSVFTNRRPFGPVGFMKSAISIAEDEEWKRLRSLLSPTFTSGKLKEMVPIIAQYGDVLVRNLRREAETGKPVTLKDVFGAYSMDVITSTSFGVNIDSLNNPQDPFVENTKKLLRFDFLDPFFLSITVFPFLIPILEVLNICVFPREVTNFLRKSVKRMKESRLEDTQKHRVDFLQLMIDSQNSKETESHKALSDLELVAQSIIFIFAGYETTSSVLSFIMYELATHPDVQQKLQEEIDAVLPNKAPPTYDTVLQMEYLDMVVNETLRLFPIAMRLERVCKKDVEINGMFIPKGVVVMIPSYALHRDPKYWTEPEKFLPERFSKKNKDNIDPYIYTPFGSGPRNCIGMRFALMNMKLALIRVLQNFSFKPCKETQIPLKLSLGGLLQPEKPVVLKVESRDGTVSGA
For a further series, the target named is T1, Cytochrome P450 1A2 (Homo sapiens, UniProt P05177).
T1 sequence (P05177 whole entry): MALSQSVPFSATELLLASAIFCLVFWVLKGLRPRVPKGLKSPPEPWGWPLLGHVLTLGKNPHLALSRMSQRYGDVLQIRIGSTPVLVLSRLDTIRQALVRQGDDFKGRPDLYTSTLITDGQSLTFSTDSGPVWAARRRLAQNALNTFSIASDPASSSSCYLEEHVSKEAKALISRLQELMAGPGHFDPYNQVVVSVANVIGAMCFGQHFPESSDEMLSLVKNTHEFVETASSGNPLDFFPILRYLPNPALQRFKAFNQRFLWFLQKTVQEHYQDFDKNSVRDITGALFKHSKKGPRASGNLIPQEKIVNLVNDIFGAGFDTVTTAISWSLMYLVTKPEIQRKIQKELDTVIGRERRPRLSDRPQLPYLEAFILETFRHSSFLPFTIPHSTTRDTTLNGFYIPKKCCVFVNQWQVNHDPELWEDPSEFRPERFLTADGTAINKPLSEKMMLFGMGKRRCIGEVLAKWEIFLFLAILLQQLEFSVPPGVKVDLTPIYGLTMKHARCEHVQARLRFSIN
Nature of the series: Inhibition of CYP1A2 (unknown origin) up to 10 uM. It is filed as ADME.

The subject of series [15] is Salmonella typhimurium. Nature of the series: Mutagenicity in Salmonella typhimurium TA100 up to 5000 ug/ml by Ames test in absence of rat S9 fraction. It is filed as toxicity, organism-based. The settings on record: salmonella enterica subsp. enterica serovar typhimurium.
In series [16] the test system is Salmonella typhimurium. The series is described as follows: Mutagenicity in Salmonella typhimurium TA100 up to 5000 ug/ml by Ames test in presence of rat S9 fraction. It is filed as toxicity, organism-based. Particulars: salmonella enterica subsp. enterica serovar typhimurium.

Molecules are shown by their SMILES.

Chain of Phosphatidylinositol 4,5-bisphosphate 3-kinase catalytic subunit gamma isoform (Homo sapiens, UniProt P48736) (P48736 whole entry, canonical isoform): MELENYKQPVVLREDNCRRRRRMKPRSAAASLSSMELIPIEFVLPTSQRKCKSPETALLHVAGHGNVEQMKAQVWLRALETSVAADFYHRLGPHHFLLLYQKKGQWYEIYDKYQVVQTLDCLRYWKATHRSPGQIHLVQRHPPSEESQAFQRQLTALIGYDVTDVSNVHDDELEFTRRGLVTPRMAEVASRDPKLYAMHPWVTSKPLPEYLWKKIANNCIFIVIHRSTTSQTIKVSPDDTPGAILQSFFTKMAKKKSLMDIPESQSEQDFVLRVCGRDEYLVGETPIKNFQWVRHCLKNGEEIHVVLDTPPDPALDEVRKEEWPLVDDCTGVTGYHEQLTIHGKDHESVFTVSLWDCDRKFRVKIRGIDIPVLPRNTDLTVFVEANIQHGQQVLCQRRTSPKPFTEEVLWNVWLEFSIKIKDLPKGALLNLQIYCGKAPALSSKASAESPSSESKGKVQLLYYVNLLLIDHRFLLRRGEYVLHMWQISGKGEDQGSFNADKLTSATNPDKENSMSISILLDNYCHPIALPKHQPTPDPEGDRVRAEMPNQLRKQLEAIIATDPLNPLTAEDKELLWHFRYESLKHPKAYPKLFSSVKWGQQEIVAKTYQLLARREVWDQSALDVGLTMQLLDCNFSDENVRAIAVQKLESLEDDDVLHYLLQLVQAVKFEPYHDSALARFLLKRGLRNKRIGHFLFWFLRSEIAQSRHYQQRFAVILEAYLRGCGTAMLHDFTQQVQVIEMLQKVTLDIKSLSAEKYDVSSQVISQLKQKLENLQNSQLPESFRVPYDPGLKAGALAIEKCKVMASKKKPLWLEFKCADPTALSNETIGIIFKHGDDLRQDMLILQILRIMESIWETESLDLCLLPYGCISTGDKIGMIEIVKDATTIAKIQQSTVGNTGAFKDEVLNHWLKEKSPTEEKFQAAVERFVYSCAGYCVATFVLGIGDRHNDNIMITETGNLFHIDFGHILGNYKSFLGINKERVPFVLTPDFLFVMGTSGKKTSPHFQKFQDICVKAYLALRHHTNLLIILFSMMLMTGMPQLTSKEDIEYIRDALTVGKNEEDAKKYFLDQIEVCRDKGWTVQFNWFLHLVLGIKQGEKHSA
Chain of Cytochrome P450 2D6 (P10635 whole entry): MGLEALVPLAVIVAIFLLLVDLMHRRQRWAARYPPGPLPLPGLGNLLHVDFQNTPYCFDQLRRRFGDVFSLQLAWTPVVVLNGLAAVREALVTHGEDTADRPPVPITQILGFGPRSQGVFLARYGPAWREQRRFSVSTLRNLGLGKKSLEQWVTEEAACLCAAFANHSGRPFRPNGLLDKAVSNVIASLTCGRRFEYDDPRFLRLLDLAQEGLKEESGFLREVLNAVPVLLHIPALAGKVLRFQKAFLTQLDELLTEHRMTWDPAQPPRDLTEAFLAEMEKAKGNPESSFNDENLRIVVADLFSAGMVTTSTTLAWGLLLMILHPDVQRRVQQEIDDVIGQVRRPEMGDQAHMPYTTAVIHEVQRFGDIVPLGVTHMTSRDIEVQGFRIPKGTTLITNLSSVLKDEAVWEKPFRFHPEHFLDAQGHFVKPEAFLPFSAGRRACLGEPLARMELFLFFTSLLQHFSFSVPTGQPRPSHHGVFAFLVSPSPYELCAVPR

Broadly, the IC50 is the concentration needed to halve the response being measured. In the case of `CC(=O)Nc1nc(C)c(-c2nc(C3CCOC3)no2)s1` (stereo not drawn), the IC50 was 57 nM in series [1] and 558 nM in series [2].

In the case of `CC(=O)Nc1nc(C)c(-c2nc(C(C)(C)C)no2)s1`, the results for the IC50 in [1] and in series [2] were 14 nM and 231 nM, respectively.

As usually defined, the AUC(0-t) is exposure summed from dosing to a finite time, without extrapolation to infinity. The Cmax is the peak of the concentration-time curve. For `CC(=O)Nc1nc(C)c(-c2nc(CC(C)(C)CO)no2)s1`, the AUC(0-t) at 8 h in series [3] is 92 ng·h/mL. Further, the results for the remaining at 0.25 h, 5 µM in series [4] and in series [7] were 94% and 102%, respectively. The remaining at 1 h, 5 µM turned out to be 11.3% in series [5] and 9.3% in series [6]. Moreover, the half-inhibitory concentration (IC50) in series [1] stood at 7.2 nM; in series [2] it was 191 nM. Further, in series [8], the Cmax is 38 ng/mL.

In the case of `CC(=O)Nc1nc(C)c(-c2nc(C(C)(C)CO)no2)s1`, the IC50 in series [1] was determined as 52 nM.

Turning to `CC(=O)Nc1nc(C)c(-c2nc(N3CCOCC3)no2)s1`, the IC50 in series [1] was 100 nM.

For the compound `CC(=O)Nc1nc(C)c(-c2nc(N3CCCC(O)C3)no2)s1` (stereo not drawn), the “inhibition (INH)” value against Cytochrome P450 2C9, at Cytochrome P450 2D6, at Cytochrome P450 2C19, against Cytochrome P450 3A4 and against Cytochrome P450 1A2 was “Not Active” in each case. The Activity entry in the series with Mus musculus was “Dose-dependent effect”; in the series with Escherichia coli [9] it was “Non-toxic”; with Salmonella typhimurium [10] it was “Non-toxic”; with Escherichia coli [11] it was “Non-toxic”; in the series on Salmonella typhimurium [12] it was “Non-toxic”; in the series with Salmonella typhimurium [13], “Non-toxic”. Further, the Activity result in the series with Salmonella typhimurium [14], with Salmonella typhimurium [15] and in the series with Salmonella typhimurium [16] was “Non-toxic” each time. Further, in series [3], the AUC(0-t) at 8 h is 10800 ng·h/mL. In addition, the remaining at 0.25 h, 5 µM in series [4] came to 97.1%; in series [7], 96.9%. The remaining at 1 h, 5 µM was determined as 62.1% in series [5] and 75.7% in series [6]. The figures for the IC50 in series [1] and in [2] were 29 nM and 294 nM, respectively. Also, in series [8], the highest level (Cmax) was 3920 ng/mL.

`CC(=O)Nc1nc(C)c(-c2nc(CCCO)no2)s1`: in series [1], the IC50 was determined as 121 nM.

Consider `Cc1nc(N)sc1-c1cnc(C(C)(C)C)o1`, for which the Activity entry in the series with Escherichia coli [9], with Salmonella typhimurium [10], with Escherichia coli [11], in the series with Salmonella typhimurium [12], in the series with Salmonella typhimurium [13] and in the series with Salmonella typhimurium [14] was “Toxic” each time. Further, the Activity entry in the series with Salmonella typhimurium [15] and in the series on Salmonella typhimurium [16] was “Toxic” each time. In addition, the IC50 in series [1] came to 81 nM.

In the case of `CC(=O)Nc1nc(C)c(-c2nc(CC(C)(C)O)no2)s1`, the IC50 in series [1] is 68 nM.

For the compound `CC(=O)Nc1nc(C)c(-c2nc(C(C)(C)CCO)no2)s1`, the IC50 in series [1] was 62 nM.

With `CC(=O)Nc1nc(C)c(-c2nc(CC(F)(F)F)no2)s1`, the AUC(0-t) at 8 h in [3] came to 1180 ng·h/mL. The remaining at 0.25 h, 5 µM came to 72.9% in series [4] and 79.1% in series [7]. The IC50 was determined as 28 nM in series [1] and 278 nM in series [2]. Moreover, the Cmax in series [8] turned out to be 345 ng/mL.

For the compound `Cc1nc(N)sc1-c1nc(C(C)(C)C)no1`, the Activity entry in the series with Escherichia coli [9], in the series with Salmonella typhimurium [10], in the series on Escherichia coli [11], with Salmonella typhimurium [12], in the series with Salmonella typhimurium [13] and in the series on Salmonella typhimurium [14] was “Non-toxic” each time. Further, the Activity result with Salmonella typhimurium [15] and with Salmonella typhimurium [16] was “Non-toxic” throughout. In [1], the IC50 amounted to 68 nM.

With `CC(=O)Nc1nc(C)c(-c2nc(CC(C)(C)C(C)O)no2)s1` (stereo not drawn), the AUC(0-t) at 8 h in series [3] is 10900 ng·h/mL. Further, the values for the remaining at 0.25 h, 5 µM in series [4] and in [7] were 91.5% and 94.1%, respectively. The remaining at 1 h, 5 µM is 20.9% in series [5] and 35.2% in series [6]. The results for the IC50 in [1] and in [2] were 17 nM and 155 nM, respectively. The compound also yielded a Cmax in series [8] of 7800 ng/mL.

Turning to `CC(=O)Nc1nc(C)c(-c2nc(CCC(C)(C)O)no2)s1`, in series [1], the IC50 came to 203 nM.

Consider `COCC(C)(C)Cc1noc(-c2sc(NC(C)=O)nc2C)n1`, for which the IC50 in [1] turned out to be 68 nM.

`CC(=O)Nc1nc(C)c(-c2cnc(C(C)(C)C)o2)s1`: the Activity entry in the series on Escherichia coli [9], with Salmonella typhimurium [10], with Escherichia coli [11], in the series on Salmonella typhimurium [13], with Salmonella typhimurium [15] and in the series with Salmonella typhimurium [16] was “Non-toxic” each time.

On to `Cc1nc(N)sc1-c1nc(N2CCCC(O)C2)no1` (stereo not drawn), for which the Activity result in the series with Escherichia coli [9], with Salmonella typhimurium [10], in the series on Escherichia coli [11], in the series with Salmonella typhimurium [12], in the series with Salmonella typhimurium [13] and with Salmonella typhimurium [14] was “Non-toxic” in each case. In addition, the Activity result in the series on Salmonella typhimurium [15] and with Salmonella typhimurium [16] was “Non-toxic” in each case.

As for `CC(=O)Nc1nc(C)c(-c2nc(CCO)no2)s1`, the IC50 in series [1] worked out at 158 nM.

Values taken from ChEMBL document CHEMBL3091363, “Discovery of N-{5-[3-(3-hydroxypiperidin-1-yl)-1,2,4-oxadiazol-5-yl]-4-methyl-1,3-thiazol-2-yl}acetamide (TASP0415914) as an orally potent phosphoinositide 3-kinase γ inhibitor for the treatment of inflammatory diseases” (Bioorg Med Chem, 2013).
